{
  "source": "patent US9586925B2",
  "about": "(priority 2013, dated 2017)",
  "key": {"[1]": {"target": "human recombinant butyrylcholinesterase (Homo sapiens (Human), UniProt P06276)", "sequence (P06276 29-602 limits assumed)": "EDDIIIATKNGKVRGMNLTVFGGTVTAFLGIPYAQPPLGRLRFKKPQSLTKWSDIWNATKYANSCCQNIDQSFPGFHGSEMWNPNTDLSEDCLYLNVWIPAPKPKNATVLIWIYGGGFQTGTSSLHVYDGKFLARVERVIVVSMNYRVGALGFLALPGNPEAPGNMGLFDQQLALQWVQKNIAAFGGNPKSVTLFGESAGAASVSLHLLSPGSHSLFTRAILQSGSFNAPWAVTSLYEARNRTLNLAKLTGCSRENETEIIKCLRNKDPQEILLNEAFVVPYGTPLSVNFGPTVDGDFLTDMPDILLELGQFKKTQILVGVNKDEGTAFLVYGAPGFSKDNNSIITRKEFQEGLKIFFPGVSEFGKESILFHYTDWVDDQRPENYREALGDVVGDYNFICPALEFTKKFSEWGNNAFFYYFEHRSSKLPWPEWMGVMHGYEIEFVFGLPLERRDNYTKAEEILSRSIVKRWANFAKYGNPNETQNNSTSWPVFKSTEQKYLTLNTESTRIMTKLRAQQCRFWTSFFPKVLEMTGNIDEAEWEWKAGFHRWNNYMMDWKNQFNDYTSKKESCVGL", "experiment": "biochemical", "assay_type": "biochemical"}, "[2]": {"target": "Human recombinant acetylcholinesterase (Homo sapiens (Human), UniProt P22303)", "sequence (P22303 32-614 limits assumed)": "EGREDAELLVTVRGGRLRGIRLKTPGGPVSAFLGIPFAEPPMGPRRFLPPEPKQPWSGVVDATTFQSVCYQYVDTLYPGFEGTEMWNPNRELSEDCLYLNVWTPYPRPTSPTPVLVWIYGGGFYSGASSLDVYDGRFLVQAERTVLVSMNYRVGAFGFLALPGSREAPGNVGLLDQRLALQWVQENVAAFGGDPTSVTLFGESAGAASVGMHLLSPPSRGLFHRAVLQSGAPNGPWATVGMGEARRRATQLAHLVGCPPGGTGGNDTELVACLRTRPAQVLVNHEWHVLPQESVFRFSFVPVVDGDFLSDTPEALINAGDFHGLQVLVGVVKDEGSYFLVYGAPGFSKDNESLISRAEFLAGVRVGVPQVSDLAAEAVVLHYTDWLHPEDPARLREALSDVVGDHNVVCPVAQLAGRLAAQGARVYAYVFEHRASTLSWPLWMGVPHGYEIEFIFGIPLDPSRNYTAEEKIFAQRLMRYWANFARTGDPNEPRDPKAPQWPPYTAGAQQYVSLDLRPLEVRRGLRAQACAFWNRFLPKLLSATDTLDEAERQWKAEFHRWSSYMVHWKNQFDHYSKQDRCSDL", "experiment": "biochemical"}, "[3]": {"tested_on": "Male Wistar rats", "assay_type": "in vivo", "conditions": "rat"}},
  "note": "Where two headings read alike, the source gives them in different places.",
  "data": [
    {"smiles": "COc1cc(C(C)N(C)C)c2c(c1)oc(=O)c1ccccc12", "note": "(racemic) [FAR-01-1, (±)-1-(1-(dimethylamino)ethyl)-3-methoxy-6H-benzo[c]chromen-6-one]", "values": [
      {"measurement": "IC50", "setting": "[1]", "value": 24.7, "unit": "µM"}
    ]},
    {"smiles": "CCN(C)C(=O)Oc1cc(C(C)N(C)C)c2c(c1)oc(=O)c1ccccc12", "note": "(racemic) [FAR-01-1CA, (±)-1-(1-(dimethylamino)ethyl)-6-oxo-6H-benzo[c]chromen-3-yl ethyl(methyl)carbamate]", "values": [
      {"measurement": "BCHE inhibitory potential in comparison to the current drugs (galantamine, rivastigmine, donepezil)", "setting": "[1]", "value": "at least comparable and/or better inhibitory potential"},
      {"measurement": "IC50", "setting": "[1]", "value": 8.5, "unit": "µM"},
      {"measurement": "selectivity BCHE versus ACHE", "setting": "[1]", "value": "possess selectivity to inhibit the BCHE"},
      {"measurement": "IC50", "setting": "[2]", "value": "> 40", "unit": "µM"}
    ]},
    {"smiles": "CC(c1cc(O)cc2oc(=O)c3ccccc3c12)N(C)C", "note": "(racemic) [FAR-01-1OH, (±)-1-(1-(dimethylamino)ethyl)-3-hydroxy-6H-benzo[c]chromen-6-one]", "values": [
      {"measurement": "IC50", "setting": "[1]", "value": "> 40", "unit": "µM"},
      {"measurement": "IC50", "setting": "[2]", "value": 33.1, "unit": "µM"}
    ]},
    {"smiles": "COc1cc(C(C)N(C)C)cc2oc(=O)c3ccccc3c12", "note": "(racemic) [FAR-01-2, (±)-3-(1-(dimethylamino)ethyl)-1-methoxy-6H-benzo[c]chromen-6-one]", "values": [
      {"measurement": "IC50", "setting": "[1]", "value": 21.1, "unit": "µM"},
      {"measurement": "Reverse (%) (percentage antagonism of scopolamine-induced latency deficit)", "setting": "[3]; in vivo", "value": 71, "unit": "%"},
      {"measurement": "IC50", "setting": "[2]", "value": 2.8, "unit": "µM"}
    ]},
    {"smiles": "CCN(C)C(=O)Oc1cc(C(C)N(C)C)cc2oc(=O)c3ccccc3c12", "note": "(racemic) [FAR-01-2CA, (±)-3-(1-(dimethylamino)ethyl)-6-oxo-6H-benzo[c]chromen-1-yl ethyl(methyl)carbamate]", "values": [
      {"measurement": "BCHE inhibitory potential in comparison to the current drugs (galantamine, rivastigmine, donepezil)", "setting": "[1]", "value": "at least comparable and/or better inhibitory potential"},
      {"measurement": "IC50", "setting": "[1]", "value": 12.7, "unit": "µM"},
      {"measurement": "Reverse (%) (percentage antagonism of scopolamine-induced latency deficit)", "setting": "[3]; compound 1 mg/kg oral, scopolamine 1 mg/kg i.p., latency measured for 5 minutes", "value": 53, "unit": "%"}
    ]},
    {"smiles": "CC(c1cc(O)c2c(c1)oc(=O)c1ccccc12)N(C)C", "note": "(racemic) [FAR-01-2OH, (±)-3-(1-(dimethylamino)ethyl)-1-hydroxy-6H-benzo[c]chromen-6-one]", "values": [
      {"measurement": "BCHE inhibitory potential in comparison to the current drugs (galantamine, rivastigmine, donepezil)", "setting": "[1]", "value": "at least comparable and/or better inhibitory potential"},
      {"measurement": "IC50", "setting": "[1]", "value": 4.2, "unit": "µM"},
      {"measurement": "Reverse (%) (percentage antagonism of scopolamine-induced latency deficit)", "setting": "[3]; in vivo", "value": 49, "unit": "%"},
      {"measurement": "IC50", "setting": "[2]", "value": 18.9, "unit": "µM"}
    ]},
    {"smiles": "CC(c1ccc2c(c1)oc(=O)c1ccccc12)N(C)C", "note": "(racemic) [FAR-02-2RS, (±)-3-(1-(dimethylamino)ethyl)-6H-benzo[c]chromen-6-one]", "values": [
      {"measurement": "IC50", "setting": "[1]", "value": 17.9, "unit": "µM"},
      {"measurement": "Reverse (%) (percentage antagonism of scopolamine-induced latency deficit)", "setting": "[3]; in vivo", "value": 70, "unit": "%"},
      {"measurement": "IC50", "setting": "[2]", "value": 10.9, "unit": "µM"}
    ]},
    {"smiles": "COc1cc2c(cc1OC)C(=O)C(CC1CCN(Cc3ccccc3)CC1)C2", "note": "(stereo not shown) [Donepezil, reference compound]", "values": [
      {"measurement": "Reverse (%) (percentage antagonism of scopolamine-induced latency deficit)", "setting": "[3]; in vivo", "value": 52, "unit": "%"}
    ]},
    {"smiles": "C[C@@H](c1ccc2c(c1)oc(=O)c1ccccc12)N(C)C", "note": "[FAR-02-2S, (S)-3-(1-(dimethylamino)ethyl)-6H-benzo[c]chromen-6-one]", "values": [
      {"measurement": "IC50", "setting": "[1]; read-out: BCHE Inhibitory Activity IC50", "value": 16.2, "unit": "µM"},
      {"measurement": "Reverse (%) (percentage antagonism of scopolamine-induced latency deficit)", "setting": "[3]; in vivo", "value": 71, "unit": "%"},
      {"measurement": "IC50", "setting": "[2]; read-out: ACHE Inhibitory Activity IC50", "value": 7.9, "unit": "µM"}
    ]},
    {"smiles": "CCN(C)C(=O)Oc1cccc([C@H](C)N(C)C)c1", "note": "[Rivastigmine, reference compound]", "values": [
      {"measurement": "Reverse (%) (percentage antagonism of scopolamine-induced latency deficit)", "setting": "[3]; in vivo", "value": 85, "unit": "%"}
    ]}
  ]
}
